Data from US20250171457A1, “NITROGEN-CONTAINING HETEROCYCLIC COMPOUND HAVING NRF2 ACTIVATION EFFECT” (CHUGAI SEIYAKU KABUSHIKI KAISHA, priority 2022, published 2025).

Tested on: Nrf2 transcriptional activity (pARE-Luc reporter) in HepG2 cells
Assay: In vitro Nrf2 transcriptional activity measurement by ARE-dependent reporter assay in HepG2 cell
Assay type: cell-based, human
Conditions: Homo sapiens; HepG2 cells transfected with pARE-Luc, 4 hours at 37° C.; luciferase activity of Example 1-54 or Example 17-23 at 3.75 μM defined as 100%
Summary of the method: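 HepG2 cells transfected with pGL4.37 (pARE-Luc), replated onto compound and incubated 4 h at 37° C; luciferase read by Bright-Glo luminescence. Response normalized to 100% set by a reference compound at 3.75 μM; EC50 from dose-response curve.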

| Compound | EC50 |
| --- | --- |
| O=C(O)c1cc(F)c(-c2cccc3c2OCN(C(=O)c2ccc(N4CCN(C5COC5)CC4)cc2Cl)C3)cc1N1CCOCC1 [Compound 1-70, 4-[3-[2-Chloro-4-[4-(oxetan-3-yl)piperazin-1-yl]benzoyl]-2,4-dihydro-1,3-benzoxazin-8-yl]-5-fluoro-2-morpholin-4-ylbenzoic acid] | 4.7 nM |
| COC1CN(c2cc(Cl)c(C(=O)N3COc4c(cccc4-c4cc(N5C6CCC5COC6)c(C(=O)O)cc4F)C3)cc2C)C1 [Compound 1-71, 4-[3-[2-Chloro-4-(3-methoxyazetidin-1-yl)-5-methylbenzoyl]-2,4-dihydro-1,3-benzoxazin-8-yl]-5-fluoro-2-(3-oxa-8-azabicyclo[3.2.1]octan-8-yl)benzoic acid] | 6.1 nM |
| COc1cc(C(=O)N2COc3c(cccc3-c3cc(N4CCOCC4)c(C(=O)O)cc3F)C2)c(Cl)cc1N1CCN(C)CC1 [Compound 1-72, 4-[3-[2-Chloro-5-methoxy-4-(4-methylpiperazin-1-yl)benzoyl]-2,4-dihydro-1,3-benzoxazin-8-yl]-5-fluoro-2-morpholin-4-ylbenzoic acid] | 5.8 nM |
| COc1cc(C(=O)N2COc3c(cccc3-c3cc(N4CCOCC4)c(C(=O)O)cc3F)C2)c(Cl)cc1N1CC2(COC2)C1 [Compound 1-73, 4-[3-[2-Chloro-5-methoxy-4-(2-oxa-6-azaspiro[3.3]heptan-6-yl)benzoyl]-2,4-dihydro-1,3-benzoxazin-8-yl]-5-fluoro-2-morpholin-4-ylbenzoic acid] | 5.1 nM |
| COc1cc(C(=O)N2COc3c(cccc3-c3cc(N4C5CCC4COC5)c(C(=O)O)cc3F)C2)c(Cl)cc1N1CC(OC)C1 [Compound 1-74, 4-[3-[2-Chloro-5-methoxy-4-(3-methoxyazetidin-1-yl)benzoyl]-2,4-dihydro-1,3-benzoxazin-8-yl]-5-fluoro-2-(3-oxa-8-azabicyclo[3.2.1]octan-8-yl)benzoic acid] | 2.7 nM |
| O=C(O)c1ccc(-c2cccc3c2C(=O)NN(C(=O)c2c(Cl)cc(N4CCN(C5CC5)CC4)cc2Cl)C3)cc1N1CCOCC1 [Compound 1-75, 4-[2-[2,6-Dichloro-4-(4-cyclopropylpiperazin-1-yl)benzoyl]-4-oxo-1,3-dihydrophthalazin-5-yl]-2-morpholin-4-ylbenzoic acid] | 8 nM |
| CC(C)N1CCN(c2cc(Cl)c(C(=O)N3Cc4cccc(-c5ccc(C(=O)O)c(N6CCOCC6)c5)c4C(=O)N3)c(Cl)c2)CC1 [Compound 1-76, 4-[2-[2,6-Dichloro-4-(4-propan-2-ylpiperazin-1-yl)benzoyl]-4-oxo-1,3-dihydrophthalazin-5-yl]-2-morpholin-4-ylbenzoic acid] | 5.3 nM |
| O=C(O)c1ccc(-c2cccc3c2C(=O)NN(C(=O)c2c(Cl)cc(N4CCN(CC(F)(F)F)CC4)cc2Cl)C3)cc1N1CCOCC1 [Compound 1-77, 4-[2-[2,6-Dichloro-4-[4-(2,2,2-trifluoroethyl)piperazin-1-yl]benzoyl]-4-oxo-1,3-dihydrophthalazin-5-yl]-2-morpholin-4-ylbenzoic acid] | 5.6 nM |
| CN1CCN(c2cc(Cl)c(C(=O)N3COc4c(-c5cc(N6CCOCC6)c(C(=O)O)cc5F)ccc(F)c4C3)c(Cl)c2)CC1 [Compound 1-78, 4-[3-[2,6-Dichloro-4-(4-methylpiperazin-1-yl)benzoyl]-5-fluoro-2,4-dihydro-1,3-benzoxazin-8-yl]-5-fluoro-2-morpholin-4-ylbenzoic acid] | 15 nM |
| COCCN1CCN(c2cc(Cl)c(C(=O)N3COc4c(ccc(F)c4-c4ccc(C(=O)O)c(N5CCOCC5)c4)C3)c(Cl)c2)CC1 [Compound 1-79, 4-[3-[2,6-Dichloro-4-[4-(2-methoxyethyl)piperazin-1-yl]benzoyl]-7-fluoro-2,4-dihydro-1,3-benzoxazin-8-yl]-2-morpholin-4-ylbenzoic acid] | 3.6 nM |
| CN1CCN(c2cc(Cl)c(C(=O)N3COc4c(ccc(F)c4-c4cc(N5CCOCC5)c(C(=O)O)cc4F)C3)c(Cl)c2)CC1 [Compound 1-80, 4-[3-[2,6-Dichloro-4-(4-methylpiperazin-1-yl)benzoyl]-7-fluoro-2,4-dihydro-1,3-benzoxazin-8-yl]-5-fluoro-2-morpholin-4-ylbenzoic acid] | 1.9 nM |
| COCCN1CCN(c2cc(Cl)c(C(=O)N3COc4c(ccc(F)c4-c4cc(N5CCOCC5)c(C(=O)O)cc4F)C3)c(Cl)c2)CC1 [Compound 1-81, 4-[3-[2,6-Dichloro-4-[4-(2-methoxyethyl)piperazin-1-yl]benzoyl]-7-fluoro-2,4-dihydro-1,3-benzoxazin-8-yl]-5-fluoro-2-morpholin-4-ylbenzoic acid] | 5.1 nM |
| O=C(O)c1cc(F)c(-c2c(F)ccc3c2OCN(C(=O)c2c(Cl)cc(N4CCN(C5COC5)CC4)cc2Cl)C3)cc1N1CCOCC1 [Compound 1-82, 4-[3-[2,6-Dichloro-4-[4-(oxetan-3-yl)piperazin-1-yl]benzoyl]-7-fluoro-2,4-dihydro-1,3-benzoxazin-8-yl]-5-fluoro-2-morpholin-4-ylbenzoic acid] | 3.5 nM |
| C[C@@H]1[C@@H](N2CCOCC2)CN1c1cc(Cl)c(C(=O)N2COc3c(cccc3-c3cc(N4C5CCC4COC5)c(C(=O)O)cc3F)C2)c(Cl)c1 [Compound 1-84, 4-[3-[2,6-Dichloro-4-[(2R,3S)-2-methyl-3-morpholin-4-ylazetidin-1-yl]benzoyl]-2,4-dihydro-1,3-benzoxazin-8-yl]-5-fluoro-2-(3-oxa-8-azabicyclo[3.2.1]octan-8-yl)benzoic acid] | 2.4 nM |
| C[C@@H]1[C@H](N2CCOCC2)CN1c1cc(Cl)c(C(=O)N2COc3c(cccc3-c3cc(N4C5CCC4COC5)c(C(=O)O)cc3F)C2)c(Cl)c1 [Compound 1-85, 4-[3-[2,6-Dichloro-4-[(2R,3R)-2-methyl-3-morpholin-4-ylazetidin-1-yl]benzoyl]-2,4-dihydro-1,3-benzoxazin-8-yl]-5-fluoro-2-(3-oxa-8-azabicyclo[3.2.1]octan-8-yl)benzoic acid] | 0.9 nM |
| COc1cc(-c2cc(Cl)c(C(=O)N3COc4c(cccc4-c4cc(N5C6CCC5COC6)c(C(=O)O)cc4F)C3)c(Cl)c2)ccn1 [Compound 2-1, 4-[3-[2,6-Dichloro-4-(2-methoxypyridin-4-yl)benzoyl]-2,4-dihydro-1,3-benzoxazin-8-yl]-5-fluoro-2-(3-oxa-8-azabicyclo[3.2.1]octan-8-yl)benzoic acid] | 6.2 nM |
| CN1CCn2ncc(-c3cc(Cl)c(C(=O)N4COc5c(cccc5-c5cc(N6C7CCC6COC7)c(C(=O)O)cc5F)C4)c(Cl)c3)c2C1 [Compound 3-2, 4-[3-[2,6-Dichloro-4-(5-methyl-6,7-dihydro-4H-pyrazolo[1,5-a]pyrazin-3-yl)benzoyl]-2,4-dihydro-1,3-benzoxazin-8-yl]-5-fluoro-2-(3-oxa-8-azabicyclo[3.2.1]octan-8-yl)benzoic acid] | 6.8 nM |
| COc1ccc(-c2cc(Cl)c(C(=O)N3COc4c(cccc4-c4cc(N5C6CCC5COC6)c(C(=O)O)cc4F)C3)c(Cl)c2)nn1 [Compound 3-3, 4-[3-[2,6-Dichloro-4-(6-methoxypyridazin-3-yl)benzoyl]-2,4-dihydro-1,3-benzoxazin-8-yl]-5-fluoro-2-(3-oxa-8-azabicyclo[3.2.1]octan-8-yl)benzoic acid] | 9.4 nM |
| Cn1nnc2c(-c3cc(Cl)c(C(=O)N4COc5c(cccc5-c5cc(N6C7CCC6COC7)c(C(=O)O)cc5F)C4)c(Cl)c3)cccc21 [Compound 3-4, 4-[3-[2,6-Dichloro-4-(1-methylbenzotriazol-4-yl)benzoyl]-2,4-dihydro-1,3-benzoxazin-8-yl]-5-fluoro-2-(3-oxa-8-azabicyclo[3.2.1]octan-8-yl)benzoic acid] | 6.2 nM |
| Cn1ncc2c(-c3cc(Cl)c(C(=O)N4COc5c(cccc5-c5cc(N6C7CCC6COC7)c(C(=O)O)cc5F)C4)c(Cl)c3)cncc21 [Compound 3-5, 4-[3-[2,6-Dichloro-4-(1-methylpyrazolo[3,4-c]pyridin-4-yl)benzoyl]-2,4-dihydro-1,3-benzoxazin-8-yl]-5-fluoro-2-(3-oxa-8-azabicyclo[3.2.1]octan-8-yl)benzoic acid] | 6.9 nM |

Now from value to compound:

| EC50 | Compound |
| --- | --- |
| 1.4 nM | CN1CC=C(c2cc(Cl)c(C(=O)N3COc4c(cccc4-c4cc(N5CCOCC5)c(C(=O)O)cc4F)C3)c(Cl)c2)CC1 [Compound 2-3, 4-[3-[2,6-Dichloro-4-(1-methyl-3,6-dihydro-2H-pyridin-4-yl)benzoyl]-2,4-dihydro-1,3-benzoxazin-8-yl]-5-fluoro-2-morpholin-4-ylbenzoic acid] |
| 5.7 nM | O=C(O)c1ccc(-c2cccc3c2OCN(C(=O)c2c(Cl)cc(-c4ccncc4)cc2Cl)C3)cc1N1CCOCC1 [Compound 2-4, 4-[3-(2,6-Dichloro-4-pyridin-4-ylbenzoyl)-2,4-dihydro-1,3-benzoxazin-8-yl]-2-morpholin-4-ylbenzoic acid] |
| 2.4 nM | COc1cc(C(=O)N2COc3c(cccc3-c3cc(N4CCOCC4)c(C(=O)O)cc3F)C2)c(Cl)cc1-c1ccncc1 [Compound 2-5, 4-[3-(2-Chloro-5-methoxy-4-pyridin-4-ylbenzoyl)-2,4-dihydro-1,3-benzoxazin-8-yl]-5-fluoro-2-morpholin-4-ylbenzoic acid] |
| 6 nM | COc1cc(C(=O)N2COc3c(cccc3-c3cc(N4CCOCC4)c(C(=O)O)cc3F)C2)c(Cl)cc1-c1cnn(C)c1 [Compound 2-6, 4-[3-[2-Chloro-5-methoxy-4-(1-methylpyrazol-4-yl)benzoyl]-2,4-dihydro-1,3-benzoxazin-8-yl]-5-fluoro-2-morpholin-4-ylbenzoic acid] |
| 1.3 nM | CC(C)(CO)n1cc(-c2cc(Cl)c(C(=O)N3COc4c(cccc4-c4cc(N5CCOCC5)c(C(=O)O)cc4F)C3)c(Cl)c2)cn1 [Compound 3-1, 4-[3-[2,6-Dichloro-4-[1-(1-hydroxy-2-methylpropan-2-yl)pyrazol-4-yl]benzoyl]-2,4-dihydro-1,3-benzoxazin-8-yl]-5-fluoro-2-morpholin-4-ylbenzoic acid] |
